Assay: Single dose tissue distribution study (QWBA, LSC of blood and plasma)
Format: in vivo, Sprague-Dawley rats
Method: Six male rats were administered a single oral dose of [^14C]PPI-1011 at 100 mg/kg (200 μCi/kg) and one rat was sacrificed at each of the following time points after the administration of the dose: 8, 12, 18, 24, 48, or 168 h. Terminal blood was collected by cardiac puncture directly into tubes with K2EDTA, an aliquot was stored at 4°C until LSC was performed for radioactivity, while the remaining blood was processed to plasma and stored at −20°C until LSC. Following blood collection, the carcasses were frozen in a cold bath with hexanes and dry ice for at least 8 min and then dried and stored at −70°C for at least 5 h. The carcasses were transferred to a −20°C freezer for at least 12 h before embedding.
QWBA was used to determine radioactivity concentrations in the caecum (contents and mucosa), large intestine (contents and mucosa), small intestine (contents and mucosa), stomach (contents and mucosa), brain, choroid plexus, spinal cord, bone, skin, adrenal gland, pineal body, pituitary gland, thyroid gland, liver, kidney (cortex, medulla and whole kidney), urinary bladder (contents and wall), brown fat, white fat, eye (lens, uveal tract and whole eye), epididymis, prostate gland, testis, ovary, uterus, lung, exorbital lachrymal gland, Harderian gland, pancreas, salivary gland, skeletal muscle, myocardium, cardiac blood, bone marrow, lymph node, spleen, and thymus. As well, LSC was used to determine the total radioactivity in the whole blood and plasma.
The whole-body cryosectioning technique described by ([Ullberg, 1977]) was the basis for embedding and cryosectioning the rats assigned to this study. Each frozen carcass was shaved, and then the limbs and tail were removed prior to embedding. Chilled (4°C) 3% CMC (low viscosity) was utilized to provide a firm support of reinforced ice around each rat and for a secure attachment to the microtome stage. Upon thorough freezing of the embedding medium surrounding each rat, the frozen CMC block was removed from the freezing bath and four 3/8 inch holes were drilled into the block. One cryosection quality control standard (CQCS) was prepared with a known amount of radioactivity and at least 1 ml aliquots were added to each of the four drilled holes. CQCS data were utilized to evaluate the overall performance of the QWBA assay.
Each frozen rat was sagittally trimmed (50–100 μm) at −20°C until exposure of a few target tissues employing a Leica Cryomacrocut heavy-duty microtome (Leica Microsystems Inc.,). Disposable stainless steel Feather type H45L knives (Feather Safety Razor Co., Ltd.) were utilized for trimming and sectioning each frozen rat. Several thinner sections (50 μm) were discarded prior to obtaining multiple 50 μm sections at various cryosectioning levels for QWBA analysis. Upon the collection of at least 60 target tissues in multiple cryosectioning levels, the cryosections were kept in the Cryomacrocut cryochamber for a minimum of 18 h for dehydration depending upon the number of cryosections within the cryochamber. After dehydration was complete, the cryosections were transferred to ambient temperature for processing. Mounted whole-body cryosections and a set of 15 standards were sandwiched between a standard phosphor screen and an exposure cassette. All cryosections were exposed to the phosphor screen for 4-days in a cabinet protected with lead prior to scanning using a Typhoon PhosphorImager (Cytiva). MCID™ Analysis software (InterFocus Ltd.) was utilized to generate a calibration curve of the STD nominal concentrations (nCi/g) versus PhosphorImager response (counts/μm^2 minus background) by weighted (1/x) linear regression analysis ([Potchoiba et al., 1995]; [Potchoiba et al., 1998]). The linear regression curve was then utilized to determine the concentration (nCi/g) of total radioactivity in whole-body tissues and blood. Radioactivity concentrations were expressed as μg Eq/g based on the specific activity of the compound in the final dose formulations. […]

[1] = 12 h post single oral 100 mg/kg

CC/C=C\C/C=C\C/C=C\C/C=C\C/C=C\C/C=C\CCC(=O)O[C@H](CO[14CH2]CCCCCCCCCCCCCCC)COC(=O)CCCCC1CCSS1 (stereo partly shown) [[^14C]PPI-1011]
Blood:plasma concentration ratio (168 HPD, single dose): 2.96
Radioactivity concentration, Adipose - Brown (8 h post single oral 100 mg/kg): 171 μg equivalents/g
Radioactivity concentration, Adipose - Brown (Vessel Wall) (8 h post single oral 100 mg/kg): 301 μg equivalents/g
Radioactivity concentration, Adipose - Subcutaneous (8 h post single oral 100 mg/kg): 74.0 μg equivalents/g
Radioactivity concentration, Adipose - Visceral (8 h post single oral 100 mg/kg): 83.1 μg equivalents/g
Radioactivity concentration, Adrenal Gland (8 h post single oral 100 mg/kg): 195 μg equivalents/g
Radioactivity concentration, Bladder Wall (8 h post single oral 100 mg/kg): 86.0 μg equivalents/g
Radioactivity concentration, Blood - QWBA (8 h post single oral 100 mg/kg): 35.4 μg equivalents/g
Radioactivity concentration, Bone Marrow (8 h post single oral 100 mg/kg): 23.5 μg equivalents/g
Radioactivity concentration, Bone Surface (8 h post single oral 100 mg/kg): 2.30 μg equivalents/g
Radioactivity concentration, Cerebellum (8 h post single oral 100 mg/kg): 2.70 μg equivalents/g
Radioactivity concentration, Cerebrum (8 h post single oral 100 mg/kg): 2.39 μg equivalents/g
Radioactivity concentration, Choroid Plexus (8 h post single oral 100 mg/kg): 14.9 μg equivalents/g
Radioactivity concentration, Colliculus (8 h post single oral 100 mg/kg): 3.50 μg equivalents/g
Radioactivity concentration, Diaphragm (8 h post single oral 100 mg/kg): 55.6 μg equivalents/g
Radioactivity concentration, Epididymis (8 h post single oral 100 mg/kg): 39.8 μg equivalents/g
Radioactivity concentration, Esophagus (8 h post single oral 100 mg/kg): 17.4 μg equivalents/g
Radioactivity concentration, Exorbital Lacrimal Gland (8 h post single oral 100 mg/kg): 28.7 μg equivalents/g
Radioactivity concentration, Gastric Mucosa (8 h post single oral 100 mg/kg): 91.2 μg equivalents/g
Radioactivity concentration, Harderian Gland (8 h post single oral 100 mg/kg): 14.4 μg equivalents/g
Radioactivity concentration, Intra-Orbital Lacrimal Gland (8 h post single oral 100 mg/kg): 10.4 μg equivalents/g
Radioactivity concentration, Kidney (8 h post single oral 100 mg/kg): 42.9 μg equivalents/g
Radioactivity concentration, Large Intestines (8 h post single oral 100 mg/kg): 12.5 μg equivalents/g
Radioactivity concentration, Liver (8 h post single oral 100 mg/kg): 313 μg equivalents/g
Radioactivity concentration, Lung (8 h post single oral 100 mg/kg): 74.0 μg equivalents/g
Radioactivity concentration, Lymph Node (8 h post single oral 100 mg/kg): 22.7 μg equivalents/g
Radioactivity concentration, Medulla Oblongata (8 h post single oral 100 mg/kg): 2.40 μg equivalents/g
Radioactivity concentration, Muscle (8 h post single oral 100 mg/kg): 10.3 μg equivalents/g
Radioactivity concentration, Myocardium (8 h post single oral 100 mg/kg): 92.0 μg equivalents/g
Radioactivity concentration, Nasal Turbinates (8 h post single oral 100 mg/kg): 16.0 μg equivalents/g
Radioactivity concentration, Ocular - Uveal Tract (8 h post single oral 100 mg/kg): 6.97 μg equivalents/g
Radioactivity concentration, Ocular - Whole Eye (8 h post single oral 100 mg/kg): 1.83 μg equivalents/g
Radioactivity concentration, Olfactory Bulb (8 h post single oral 100 mg/kg): 2.16 μg equivalents/g
Radioactivity concentration, Pancreas (8 h post single oral 100 mg/kg): 66.3 μg equivalents/g
Radioactivity concentration, Parotid Gland (8 h post single oral 100 mg/kg): 39.1 μg equivalents/g
Radioactivity concentration, Pineal Gland (8 h post single oral 100 mg/kg): 11.9 μg equivalents/g
Radioactivity concentration, Pituitary Gland (8 h post single oral 100 mg/kg): 21.2 μg equivalents/g
Radioactivity concentration, Preputial Gland (8 h post single oral 100 mg/kg): 33.6 μg equivalents/g
Radioactivity concentration, Prostate (8 h post single oral 100 mg/kg): 49.6 μg equivalents/g
Radioactivity concentration, Renal Cortex (8 h post single oral 100 mg/kg): 41.4 μg equivalents/g
Radioactivity concentration, Renal Medulla (8 h post single oral 100 mg/kg): 51.0 μg equivalents/g
Radioactivity concentration, Salivary Gland (8 h post single oral 100 mg/kg): 53.3 μg equivalents/g
Radioactivity concentration, Seminal Vesicles (8 h post single oral 100 mg/kg): 12.8 μg equivalents/g
Radioactivity concentration, Skin - Non-Pigmented (8 h post single oral 100 mg/kg): 15.0 μg equivalents/g
Radioactivity concentration, Small Intestines (8 h post single oral 100 mg/kg): 609 μg equivalents/g
Radioactivity concentration, Spinal Cord (8 h post single oral 100 mg/kg): 2.71 μg equivalents/g
Radioactivity concentration, Spleen (8 h post single oral 100 mg/kg): 105 μg equivalents/g
Radioactivity concentration, Stomach (8 h post single oral 100 mg/kg): 22.6 μg equivalents/g
Radioactivity concentration, Testis (8 h post single oral 100 mg/kg): 2.65 μg equivalents/g
Radioactivity concentration, Thalamus (8 h post single oral 100 mg/kg): 2.27 μg equivalents/g
Radioactivity concentration, Thymus (8 h post single oral 100 mg/kg): 10.7 μg equivalents/g
Radioactivity concentration, Thyroid (8 h post single oral 100 mg/kg): 49.9 μg equivalents/g
Radioactivity concentration, Whole Brain (8 h post single oral 100 mg/kg): 2.60 μg equivalents/g
Radioactivity concentration, Adipose - Brown [1]: 426 μg equivalents/g
Radioactivity concentration, Adipose - Brown (Vessel Wall) [1]: 383 μg equivalents/g
Radioactivity concentration, Adipose - Subcutaneous [1]: 242 μg equivalents/g
Radioactivity concentration, Adipose - Visceral [1]: 170 μg equivalents/g
Radioactivity concentration, Adrenal Gland [1]: 367 μg equivalents/g
Radioactivity concentration, Bladder Wall [1]: 19.3 μg equivalents/g
Radioactivity concentration, Blood - QWBA [1]: 16.4 μg equivalents/g
Radioactivity concentration, Bone Marrow [1]: 23.0 μg equivalents/g
Radioactivity concentration, Bone Surface [1]: 1.15 μg equivalents/g
Radioactivity concentration, Cecum [1]: 450 μg equivalents/g
Radioactivity concentration, Cerebellum [1]: 2.69 μg equivalents/g
Radioactivity concentration, Cerebrum [1]: 2.22 μg equivalents/g
Radioactivity concentration, Choroid Plexus [1]: 17.1 μg equivalents/g
Radioactivity concentration, Colliculus [1]: 3.03 μg equivalents/g
Radioactivity concentration, Diaphragm [1]: 59.9 μg equivalents/g
Radioactivity concentration, Epididymis [1]: 70.9 μg equivalents/g
Radioactivity concentration, Esophagus [1]: 16.9 μg equivalents/g
Radioactivity concentration, Exorbital Lacrimal Gland [1]: 34.5 μg equivalents/g
Radioactivity concentration, Gastric Mucosa [1]: 67.8 μg equivalents/g
Radioactivity concentration, Harderian Gland [1]: 10.8 μg equivalents/g
Radioactivity concentration, Intra-Orbital Lacrimal Gland [1]: 8.89 μg equivalents/g
Radioactivity concentration, Kidney [1]: 45.3 μg equivalents/g
Radioactivity concentration, Large Intestines [1]: 209 μg equivalents/g
Radioactivity concentration, Liver [1]: 269 μg equivalents/g
Radioactivity concentration, Lung [1]: 51.9 μg equivalents/g
Radioactivity concentration, Lymph Node [1]: 22.6 μg equivalents/g
Radioactivity concentration, Medulla Oblongata [1]: 2.44 μg equivalents/g
Radioactivity concentration, Muscle [1]: 12.6 μg equivalents/g
Radioactivity concentration, Myocardium [1]: 72.6 μg equivalents/g
Radioactivity concentration, Nasal Turbinates [1]: 10.6 μg equivalents/g
Radioactivity concentration, Ocular - Uveal Tract [1]: 6.57 μg equivalents/g
Radioactivity concentration, Ocular - Whole Eye [1]: 2.03 μg equivalents/g

From publication PMC9081329, “Pharmacokinetics, Mass Balance, Excretion, and Tissue Distribution of Plasmalogen Precursor PPI-1011” (Frontiers in Cell and Developmental Biology, 2022)
